Here are results for 64 molecules from patent publication US11179412B2, “Methods of treating conditions involving elevated inflammatory response” (University of Pittsburgh—Of the Commonwealth System of …, priority 2017, dated 2021).

Counter-ions that a name gives are not always drawn.

The subject of this assay is STING activation (IFNβ release) in iBMDMs. As to the kind of experiment: IFNβ release ELISA after STING ligand (or LPS) stimulation, iBMDMs. The class given is cell-based, mouse. The note with it: iBMDMs; 3′3′-cGAMP 10 μg/ml, 16 hours; compound 10 μM. The method in brief:
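iBMDMs were stimulated with a STING ligand such as 3′3′-cGAMP, or with LPS. Secreted IFNβ in culture medium was measured by commercial mouse or human IFNβ ELISA.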
In general terms: An ELISA detects its analyte on a solid surface through an enzyme-linked reagent.
With `C=CCNC1=C2C[C@@H](C)C[C@H](OC)[C@H](O)[C@@H](C)/C=C(\C)[C@H](OC(N)=O)[C@@H](OC)/C=C\C=C(/C)C(=O)NC(=CC1=O)C2=O` [17-AAG (Tanespimycin), Tanespimycin], the “fold increase in IFN-β release” value came to 1.53 fold.
The value for `O=C(CCCCCCC(=O)Nc1ccc([C@H]2O[C@@H](CSc3nc(-c4ccccc4)c(-c4ccccc4)o3)C[C@@H](c3ccc(CO)cc3)O2)cc1)NO` [Tubacin] was 1.05 fold; that for `Cc1cccc(CC(=O)N2CCc3c2ccc(-c2cn(C)c4ncnc(N)c24)c3F)n1` [GSK2656157] was 1.58 fold; that for `CC(C)(C)n1nc(-c2ccc(Cl)cc2)c2c(N)ncnc21` [PP2] was 0.14 fold.
The value for `Cc1c(NC(=O)c2ccc(C(C)(C)C)cc2)cccc1-c1cn(C)c(=O)c(Nc2ccc(C(=O)N3CCOCC3)cc2)n1` [CG11746] was 0.16 fold; that for `Nc1cccc2c1CN(C1CCC(=O)NC1=O)C2=O` (stereo not shown) [Lenalidomide (CC-5013), Lenalidomide] was 1.09 fold; that for `CCOc1cc(N2CCC(O)CC2)ccc1Nc1ncc2c(n1)N(C)c1ccccc1C(=O)N2C` [XMD8-92] was 2.38 fold.
Turning to `O=C(c1ccc(F)cc1)N1CCC[C@H](c2nc(-c3ccc(F)cc3)no2)C1` [ADX-47273], the “fold increase in IFN-β release” value is on record as 1.72 fold.
The value for `CN(C)Cc1ccc(-c2nc3cccc4c3n2CCNC4=O)cc1` [AG-14361] was 2.41 fold.
The value for `CNc1nc(Nc2cnn([C@H]3CCN(C4COC4)C[C@@H]3F)c2Cl)ncc1C(F)(F)F` [GNE-9605] was 1.10 fold.
The value for `CCN(CC)C(=O)/C(C#N)=C/c1cc(O)c(O)c([N+](=O)[O-])c1` [Entacapone] was 0.76 fold; that for `C[C@@H](c1ncncc1F)[C@](O)(Cn1cncn1)c1ccc(F)cc1F` [Voriconazole] was 2.35 fold; that for `CCCc1nc2c(C)cc(-c3nc4ccccc4n3C)cc2n1Cc1ccc(-c2ccccc2C(=O)O)cc1` [Telmisartan] was 2.26 fold.
Regarding `CCCC(C)NC(=O)c1ccc(Cl)c(Cl)c1` (stereo not shown) [NSC 405020], the “fold increase in IFN-β release” value is given as 1.24 fold.
The value for `Nc1nc(N)c2nc(-c3cccc(O)c3)c(-c3cccc(O)c3)nc2n1` [TG100-115] was 2.65 fold; that for `C[C@H]1COC2(CCN(c3nc(=O)c4cc(C(F)(F)F)cc([N+](=O)[O-])c4s3)CC2)O1` (racemic) [BTZ043 Racemate] was 0.69 fold; that for `COc1cc(F)c(C(C)C)cc1-c1ccc(C(F)(F)F)cc1CN1C(=O)O[C@H](c2cc(C(F)(F)F)cc(C(F)(F)F)c2)[C@@H]1C` [Anacetrapib (MK-0859), Anacetrapib] was 2.12 fold.
For the molecule `Cc1ccc(-n2nccn2)c(C(=O)N2CCN(c3nc4cc(Cl)ccc4o3)CC[C@H]2C)c1` [Suvorexant (MK-4305), Suvorexant], the “fold increase in IFN-β release” value turned out to be 1.54 fold.
Consider `O=c1ncn2nc(Sc3ccc(F)cc3F)ccc2c1-c1c(Cl)cccc1Cl` [VX-745], for which the “fold increase in IFN-β release” value stood at 6.18 fold.
The value for `COc1ccccc1S(=O)(=O)Nc1ccc2c(c1)CN(C)C(=O)N2` [PFI-1 (PF-6405761)] was 0.52 fold.
The value for `CCOC(=O)[C@H](CCc1ccccc1)N[C@@H](C)C(=O)N1C(=O)N(C)C[C@H]1C(=O)O` [Imidapril HCl] was 3.20 fold; that for `C#CCN[C@@H]1CCc2ccccc21` [Rasagiline Mesylate] was 1.77 fold; that for `CC(C)C[C@H](NC(=O)CNC(=O)c1cc(Cl)ccc1Cl)B(O)O` [MLN2238] was 4.76 fold.
The value for `COc1ccc2c(c1)c(CC(=O)N1CCOCC1)c(C)n2C(=O)c1ccc(Cl)cc1` [BML-190] was 0.35 fold; that for `COC1CCN(C(=O)c2cc(Cc3n[nH]c(=O)c4ccccc34)ccc2F)CC1` [AZD2461] was 2.12 fold.
With `C/C(=C\C(=O)Nc1ccccc1C(=O)O)c1ccc2ccccc2c1` [BIBR 1532], the “fold increase in IFN-β release” value is reported as 2.10 fold.
Consider `Cc1cc(C)c(S(=O)(=O)n2cc(C)cc2C)c(C)c1` [HJC0350], for which the “fold increase in IFN-β release” value turned out to be 1.05 fold.
For `Cc1nnc(C(=O)NC(C)(C)c2nc(C(=O)NCc3ccc(F)cc3)c(O)c(=O)n2C)o1` [Raltegravir (MK-0518), Raltegravir], the “fold increase in IFN-β release” value is recorded as 4.80 fold.
The value for `CC(CCc1ccccc1)NCC(O)c1ccc(O)c(C(N)=O)c1` (stereo not shown) [Labetalol HCl] was 2.96 fold; that for `CC(C)(C)c1cc(/C=C(\C#N)C(N)=S)cc(C(C)(C)C)c1O` [Tyrphostin AG 879] was 1.99 fold.
The value for PF-04620110 was 3.43 fold; that for `CC(C)(C#N)c1cc(Cn2cncn2)cc(C(C)(C)C#N)c1` [Anastrozole] was 0.98 fold; that for `CC(=O)c1cc([N+](=O)[O-])c(Sc2ccc(F)cc2F)s1` [P22077] was 0.35 fold.
The value for `CC(C)Oc1ccc(-c2cnc3c(-c4ccnc5ccccc45)cnn3c2)cc1` [DMH1] was 1.43 fold; that for `Nc1ncnc2n[nH]c(Nc3ccc(F)cc3)c12` [CGP 57380] was 0.54 fold; that for `Nc1ccc(C(=O)[O-])c(O)c1.[Na+]` [Sodium 4-Aminosalicylate] was 0.74 fold.
On to `Cc1cnc(-c2cc(N3CCN(C(=O)CCS(C)(=O)=O)CC3)ncc2Cl)c(C)c1` [PF-5274857], for which the “fold increase in IFN-β release” value was determined as 0.16 fold.
The value for `O=C(Nc1cc(C(F)(F)F)ccc1N1CCCCC1)c1ccncc1` [SRPIN340] was 2.38 fold.
The value for `CN(C)CCCCC(=O)Nc1ccc(NC(=S)NC(=O)c2ccc(C(C)(C)C)cc2)cc1` [Tenovin-6] was 0.53 fold.
The value for `Cc1cc(Nc2cc(CN3CCOCC3)c3nc(C)c(Cc4ccc(Cl)cc4F)n3n2)n[nH]1` [LY2784544] was 2.09 fold; that for `CN1CCN(c2ccc(OC(F)(F)F)c(Nc3ncc4c(n3)-c3c(c(C(N)=O)nn3CCO)CC4)c2)CC1` [NMS-P937 (NMS1286937)] was 0.73 fold; that for `CCn1c2ccccc2c2cc(Nc3ccnc(NCCCN4CCOCC4)n3)ccc21` [EHop-016] was 1.69 fold.
In the case of `CC(NC(=O)c1ccccc1/N=C/c1c(O)ccc2ccccc12)c1ccccc1` (stereo not shown) [Sirtinol], the “fold increase in IFN-β release” value was found to be 0.26 fold.
Regarding `CC(C)(C)c1cnc(CSc2cnc(NC(=O)C3CCNCC3)s2)o1` [SNS-032 (BMS-387032)], the “fold increase in IFN-β release” value worked out at 1.01 fold.
As for `NCC(=O)Nc1ccc(-n2nc(C(F)(F)F)cc2-c2ccc3c(ccc4ccccc43)c2)cc1` [OSU-03012 (AR-12)], the “fold increase in IFN-β release” value amounted to 0.31 fold.
For `C#Cc1cccc(Nc2ncnc3cc4c(cc23)OCCOCCOCCO4)c1` [Icotinib], the “fold increase in IFN-β release” value was 0.57 fold.
The value for `CC(C)C[C@H](NC(=O)[C@H]1O[C@@H]1C(=O)O)C(=O)NCCCCN=C(N)N` [E-64] was 0.17 fold.
In the case of `COc1ccc(C[C@@H](C)NC[C@H](O)c2ccc(O)c(NC=O)c2)cc1.COc1ccc(C[C@@H](C)NC[C@H](O)c2ccc(O)c(NC=O)c2)cc1.O=C(O)/C=C/C(=O)O` [Formoterol Hemifumarate], the “fold increase in IFN-β release” value was determined as 1.76 fold.
Turning to `O=C(Nc1cccc(Nc2ncc(Br)c(NCCc3cnc[nH]3)n2)c1)N1CCCC1` [BX-912], the “fold increase in IFN-β release” value was 1.86 fold.
The value for `CCc1cccc2c3c([nH]c12)C(CC)(CC(=O)O)OCC3` (stereo not shown) [Etodolac] was 0.35 fold.
As for `C[C@H](NC(=O)Cc1cc(F)cc(F)c1)C(=O)N[C@@H]1C(=O)N(C)c2ccccc2-c2ccccc21` [YO-01027], the “fold increase in IFN-β release” value was found to be 1.74 fold.
Turning to `COc1cc(OC)c(NC(=O)Nc2cc(C)on2)cc1Cl` [PNU-120596], the “fold increase in IFN-β release” value turned out to be 0.12 fold.
Consider `Cn1cc(-c2ccc3c(c2)CCN3C(=O)Cc2cccc(C(F)(F)F)c2)c2c(N)ncnc21` [GSK2606414], for which the “fold increase in IFN-β release” value amounted to 1.40 fold.
As to `CCO.N#CC(=C(/N)Sc1ccccc1N)/C(C#N)=C(\N)Sc1ccccc1N` [U0126-EtOH], the “fold increase in IFN-β release” value turned out to be 0.70 fold.
The value for `Cc1ccc(C(=O)N(CCCN)[C@@H](c2oc3cc(Cl)ccc3c(=O)c2Cc2ccccc2)C(C)C)cc1` [SB743921] was 1.16 fold.
On to `CCc1cc(Nc2nccc(-c3c(-c4ccc(OC)c(C(=O)Nc5c(F)cccc5F)c4)nc4ccccn34)n2)c(OC)cc1N1CCC(N2CCN(S(C)(=O)=O)CC2)CC1` [GSK1904529A], for which the “fold increase in IFN-β release” value came out at 1.05 fold.
Regarding `O=C(NCC1(c2nc(-c3ccccc3)cs2)CCOCC1)c1cccc(-c2noc(C(F)(F)F)n2)c1` [TMP269], the “fold increase in IFN-β release” value stood at 1.59 fold.
As to `C#CC[C@H](c1nc2cc(Cl)ccc2c(=O)n1Nc1ccccc1)N(CCCN)C(=O)c1cccc(Cl)c1F` [ARQ 621], the “fold increase in IFN-β release” value was 1.87 fold.
The value for `COc1cc2ncnc(Nc3ccc(Cl)cc3F)c2cc1OC` [ZM 306416] was 0.14 fold.
For `CCOC(=O)C1=C(COCCN)NC(C)=C(C(=O)OC)C1c1ccccc1Cl` (stereo not shown) [Amlodipine], the “fold increase in IFN-β release” value was 1.46 fold.
With `CN1CCC[C@@H]1CCO[C@](C)(c1ccccc1)c1ccc(Cl)cc1` [Clemastine Fumarate], the “fold increase in IFN-β release” value is 1.32 fold.
For `Nc1nc(CC(=O)Nc2ccc(CCNC[C@H](O)c3ccccc3)cc2)cs1` [Mirabegron], the “fold increase in IFN-β release” value turned out to be 0.69 fold.
As to `CCC(COC(=O)c1cc(OC)c(OC)c(OC)c1)(c1ccccc1)N(C)C` (stereo not shown) [Trimebutine], the “fold increase in IFN-β release” value is 0.30 fold.
Regarding `O=C(NNc1nc2cc(F)ccc2n2cccc12)c1cnccn1` [SC144], the “fold increase in IFN-β release” value was 2.63 fold.
